Assays:
CRAF = CRAF (Homo sapiens, UniProt P04049); assay: CRAF kinase activity assay (ADP-Glo); format: biochemical
Experimental: (§1) Compound preparation: solid samples of each substances in 1dram vials were suspended in DMSO (Fisher Scientific) at a stock concentration of 20 mM. Stocks were kept at −20° C. and protected from light. If solubility of the compound at 20 mM appeared to be an issue, the initial concentration of the DMSO stock was changed to 10 mM or 5 mM.
(§2) In vitro enzymatic reactions were used for evaluating compounds intrinsic activity against BRAF, CRAF and ARAF. For BRAF and CRAF, 0.375 nM of purified GST-tagged kinases (cat #B4062-10UG and cat #R1656-10UG respectively from Millipore Sigma) were incubated with 75 nM of kinase-dead MEK1 substrate (cat #40075; BPS Bioscience) in the presence of 10 μM of Ultrapure ATP (cat #V9102; Promega; part V915A) with and without the test compound in a buffer containing 50 mM HEPES pH 7.5, 10 mM MgCl2, 1 mM EDTA, 0.01% Brij-35 and 2 mM DTT. Separate reactions were performed with the MEK1 substrate and ATP as a blank control. ARAF, kinase reactions were rigorously the same with the exception that kinase concentration was raised to 3.75 nM (cat #1768-0000-1; Reaction Biology).
(§3) For compound treatment, 5 μL/well of test substance solution are placed in a 384-well proxyplate (Perkin Elmer) and mixed with 2× concentrated kinase reactions. The dilution series is selected so that nine concentrations cover a range from 100 nM to 0.01 nM. […] The final concentration of DMSO in the assay is set at 0.05%.
(§4) BRAF and CRAF kinase reactions were carried out for a total of 2 hours at 30° C. and then stopped by ½ dilution in ADP-Glo Reagent (cat #V9102; Promega; part V912C). Reactions were then incubated for 1 h at room temperature before addition of one volume of Kinase Detection Reagent (cat #V9102; Promega; part V917A). Plates were then equilibrated at room temperature for 30 minutes before detection of luminescence on a Synergy Neo2 plate reader (Biotek). The effect of each compound dilution on BRAF and CRAF kinase activity was expressed as % inhibition and calculated as follows. First, the internal 100% inhibition control (average of luminescence in kinase reactions comprising kinase dead MEK1 substrate alone) was subtracted from each data point. The average of DMSO (vehicle) controls (set as 0% inhibition) was established and used to calculate % inhibition:
(§5) IC50 values were obtained by plotting the kinase inhibition values and fitting the dose-activity curves using a log(agonist) versus response−variable slope (four parameters) function using either GraphPadPrism (V7.0) or Dotmatics Screening Ultra platform. Standards included in the ARAF kinase assay were Belvarafenib (MedChem Express cat #HY-109080; CAS #1446113-23-0), LXH254 (MedChem Express cat #HY-112089; CAS #1800398-38-2) and BGB283 (cat #HY-18957; CAS #1446090-79-4).

BRAF = biological target: T1, BRAF (Homo sapiens, UniProt P15056); assay: BRAF kinase activity assay (ADP-Glo); format: biochemical
T1 construct: GST; purchased Millipore Sigma B4062-10UG
T1 sequence (P15056 whole entry): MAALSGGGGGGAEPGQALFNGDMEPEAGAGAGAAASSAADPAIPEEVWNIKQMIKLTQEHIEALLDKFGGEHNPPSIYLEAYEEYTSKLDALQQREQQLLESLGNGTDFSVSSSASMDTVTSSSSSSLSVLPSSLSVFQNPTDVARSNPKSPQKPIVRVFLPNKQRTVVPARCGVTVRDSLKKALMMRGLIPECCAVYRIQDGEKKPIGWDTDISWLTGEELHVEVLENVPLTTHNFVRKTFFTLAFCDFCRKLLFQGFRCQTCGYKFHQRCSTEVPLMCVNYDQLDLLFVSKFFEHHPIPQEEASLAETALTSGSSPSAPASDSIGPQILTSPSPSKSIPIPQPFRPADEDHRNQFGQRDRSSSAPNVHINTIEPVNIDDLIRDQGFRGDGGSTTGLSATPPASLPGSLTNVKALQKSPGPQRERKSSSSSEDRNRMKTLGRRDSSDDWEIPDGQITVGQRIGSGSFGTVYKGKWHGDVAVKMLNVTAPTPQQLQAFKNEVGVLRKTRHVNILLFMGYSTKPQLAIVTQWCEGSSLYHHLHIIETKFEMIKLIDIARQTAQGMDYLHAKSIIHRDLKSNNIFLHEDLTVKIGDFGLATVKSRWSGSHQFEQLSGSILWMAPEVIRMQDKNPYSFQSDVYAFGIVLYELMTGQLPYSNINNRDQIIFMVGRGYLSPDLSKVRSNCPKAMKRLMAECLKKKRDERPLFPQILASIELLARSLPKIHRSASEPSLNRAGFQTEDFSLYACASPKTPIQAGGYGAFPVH
Experimental: as §1, §2, §3, §4, §5

HCT116 pERK = assay: Phospho-ERK inhibition, AlphaLISA SureFire Ultra p-ERK 1/2; format: cell-based, human; conditions: for IC50: 1 h treatment; for HCT116 (Ymin %): lowest value of the pERK IC50 curve
Experimental: All cancer cell lines (A375, A101D, A2058, RKO, HT29 SK-MEL 30, IPC298, HepG2, HCT-116, Lovo, SW620, SW480, NCI-H358, NCI-H2122, Calu-6, NCIH2087, NCIH1755, NCIH1666 and Mewo) were obtained from ATCC and cultured in RPMI-1640 medium (Gibco) supplemented with 5% heat inactivated fetal bovine serum (FBS, Wisent) at 37° C. under 5% CO2. Cells were maintained in T175 flasks (Greiner). They were passaged by removing the culture medium, washing once in 10 mL of room temperature Phosphate Buffered Saline (PBS; Wisent) and incubating at 37° C. with 2 mL of 0.05% Trypsin (Thermo-Fisher). Trypsin was then inactivated by adding complete growth medium and the cells were then replated in a T175 culture dish at the appropriate dilution. All cell lines were routinely tested for mycoplasma contamination. Tissue type and mutational status of each cell line can be found in Table B.
AlphaLISA® SureFire® Ultra™ p-ERK ½ (Thr202/Tyr204) analysis was conducted on cells plated in 100 μL of complete RPMI-1640 growth medium in 96-well flat-bottomed transparent dishes (Costar) at a density indicated in Table C. Cells were maintained overnight at 37° C. under 5% CO2 before treatment with compounds' dilution series for one hour. The cell density in cells/cm^2 corresponds to cell number divided by the area of one well of a 96-well plate ([…]).
In a dilution series 100 μL/well of test substance dilution prepared in complete RPMI-1640 growth media was added to the cells. The dilution series is selected so that ten concentrations cover a range from 30 μM or 10 μM to 0.33 nM. If necessary, the initial concentration of 10 μM is increased to 100 μM or lowered to 1 μM (as in the case of A375 and NCIH1666 cells, which are generally more sensitive to the compounds) and further dilution is carried out accordingly. The final concentration of DMSO in the assay is set at 0.5%.
After treatment, media was removed, and cells were lysed in 50 μL of 1× AlphaScreen Ultra Lysis Buffer (Perkin Elmer). The AlphaLISA® SureFire® Ultra™ p-ERK ½ (Thr202/Tyr2O4) (PerkinElmer) reactions were performed with 5 μL of cell lysate according to the manufacturer's specifications in 384-well proxyplates (Perkin Elmer) followed by overnight incubation of the reactions at room temperature in a humidified chamber. After completion of the reactions, the signals were recorded on an EnVision plate reader (Perkin Elmer) using built in AlphaLISA® settings.
The effect of each compound dilution on the pERK signal was expressed in % inhibition and calculated as follows. An internal 100% inhibition control (1 μM trametinib, cat. No. HY-10999; MedChem Express; CAS No. 871700-17-3) was included in each plate and used as a measure of pERK background. First, the value obtained for trametinib was subtracted from each data point. The average of DMSO (vehicle) controls (set as 0% inhibition) was established and used to calculate % inhibition:
The ability of each compound to inhibit pERK signal was expressed as an IC50 value obtained by plotting the inhibition values for each data point of a dilution series and fitting the obtained curves using a log(agonist) versus response−variable slope (four parameters) function using GraphPadPrism (V7.0).
When present, paradoxical pERK induction is inferred from the negative % inhibition values observed in the pERK IC50 curves of a compound.

CRAF, sequence (P04049 whole entry): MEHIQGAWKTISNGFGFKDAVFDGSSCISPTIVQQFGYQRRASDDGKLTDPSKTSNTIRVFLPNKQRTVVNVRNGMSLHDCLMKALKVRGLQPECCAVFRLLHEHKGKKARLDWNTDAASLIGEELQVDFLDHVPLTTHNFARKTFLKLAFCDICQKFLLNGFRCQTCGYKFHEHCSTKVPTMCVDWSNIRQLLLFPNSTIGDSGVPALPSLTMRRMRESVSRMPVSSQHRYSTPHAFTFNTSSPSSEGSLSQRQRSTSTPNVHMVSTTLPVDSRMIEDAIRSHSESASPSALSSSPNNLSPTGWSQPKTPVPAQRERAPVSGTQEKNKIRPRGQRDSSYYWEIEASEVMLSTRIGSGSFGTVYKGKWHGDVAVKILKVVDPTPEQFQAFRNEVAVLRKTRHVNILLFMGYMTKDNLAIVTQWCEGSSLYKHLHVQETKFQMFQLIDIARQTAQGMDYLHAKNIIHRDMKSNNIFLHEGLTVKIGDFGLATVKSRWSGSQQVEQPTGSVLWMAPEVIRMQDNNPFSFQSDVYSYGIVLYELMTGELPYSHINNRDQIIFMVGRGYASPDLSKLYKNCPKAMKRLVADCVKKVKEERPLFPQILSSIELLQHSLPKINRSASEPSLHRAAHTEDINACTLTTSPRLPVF

| SMILES | IC50 (CRAF; Table 3) | IC50 (BRAF; Table 3) | IC50 (HCT116 pERK; Homo sapiens, HCT-116, Table 3) | IC50 (CRAF; Table 2) | IC50 (BRAF; Table 2) | IC50 (HCT116 pERK; Table 2) | IC50 (HCT116 pERK; Table 3) | IC50 (HCT116 pERK; Homo sapiens, HCT-116, Table 2) | HCT116 (Ymin %) (HCT116 pERK; Table 2) | HCT116 (Ymin %) (HCT116 pERK; Table 3) |
| --- | --- | --- | --- | --- | --- | --- | --- | --- | --- | --- |
| COc1ccc(S(=O)(=O)Nc2ccc(F)c(Nc3ncnc4cnc(SC)nc34)c2F)c(C)c1F [Example 91] | – | – | – | 10 to 50 nM | > 10 nM | 1000 to 10000 nM | – | – | −8% | – |
| Cc1c(F)cccc1S(=O)(=O)Nc1ccc(F)c(Nc2ncnc3cnc(-n4nnc5c(N)cccc54)nc23)c1F [Example 93] | < 10 nM | 1 to 10 nM | – | – | – | – | < 500 nM | – | – | 1.3% |
| Nc1cccc2c1nnn2-c1ncc2ncnc(Nc3c(F)ccc(NS(=O)(=O)c4cccc(Cl)c4Cl)c3F)c2n1 [Example 94] | < 10 nM | 1 to 10 nM | – | – | – | – | < 500 nM | – | – | 7.7% |
| CSc1ncc2ncnc(Nc3c(F)ccc(NS(=O)(=O)c4cccc(F)c4C)c3F)c2n1 [Example 90] | – | – | – | – | 1 to 10 nM | – | – | 1000 to 10000 nM | – | – |
| COc1ccc(S(=O)(=O)Nc2ccc(F)c(Nc3ncnc4cnc(SC)nc34)c2F)c(C)c1Cl [Example 92] | – | – | – | – | 1 to 10 nM | 1000 to 10000 nM | – | – | −12% | – |

Now from value to compound, other results behind:

| IC50 (CRAF; Table 3) | IC50 (BRAF; Table 3) | IC50 (HCT116 pERK; Homo sapiens, HCT-116, Table 3) | IC50 (CRAF; Table 2) | IC50 (BRAF; Table 2) | IC50 (HCT116 pERK; Table 2) | IC50 (HCT116 pERK; Table 3) | IC50 (HCT116 pERK; Homo sapiens, HCT-116, Table 2) | SMILES | HCT116 (Ymin %) (HCT116 pERK; Table 2) | HCT116 (Ymin %) (HCT116 pERK; Table 3) |
| --- | --- | --- | --- | --- | --- | --- | --- | --- | --- | --- |
| < 10 nM | 1 to 10 nM | < 500 nM | – | – | – | – | – | COCCOc1cccc2c1nnn2-c1ncc2ncnc(Nc3c(F)ccc(NS(=O)(=O)c4cccc(Cl)c4Cl)c3F)c2n1 [Example 137] | – | – |
| 10 to 50 nM | – | – | – | – | – | 1000 to 10000 nM | – | Cc1c(F)cccc1S(=O)(=O)Nc1ccc(F)c(Nc2ncnc3cnc(-n4nc(C(=O)N5CCC(O)CC5)c5ccccc54)nc23)c1F [Example 108] | – | −7.0% |
| 10 to 50 nM | < 1 nM | – | – | – | – | 500 to 1000 nM | – | Cc1c(F)cccc1S(=O)(=O)Nc1ccc(F)c(Nc2ncnc3cnc(-n4nc(C(=O)N(C)CCO)c5ccccc54)nc23)c1F [Example 107] | – | −5.2% |
| < 10 nM | 1 to 10 nM | – | – | – | – | < 500 nM | – | CCC1(O)CCN(c2cccc3c2ncn3-c2ncc3ncnc(Nc4c(F)ccc(NS(=O)(=O)c5cccc(Cl)c5C(F)(F)F)c4F)c3n2)CC1 [Example 158] | – | −1% |
| 10 to 50 nM | 1 to 10 nM | – | – | – | – | 1000 to 10000 nM | – | O=S(=O)(Nc1ccc(F)c(Nc2ncnc3cnc(-n4cnc5ccccc54)nc23)c1F)c1cccc2c1OC(F)(F)O2 [Example 150] | – | −8% |
| 10 to 50 nM | 1 to 10 nM | – | – | – | – | < 500 nM | – | O=S(=O)(Cc1ccncc1)c1cn(-c2ncc3ncnc(Nc4c(F)ccc(NS(=O)(=O)c5cccc(Cl)c5Cl)c4F)c3n2)c2ccccc12 [Example 143] | – | −7% |
